Here are results for 9 compounds from patent US20230355644A1, “ACTIVE INGREDIENTS AND DRUGS FOR THE THERAPY OF VIRAL DISEASES, ESPECIALLY CORONA INFECTIONS, ESPECIALLY COVID-19” (Creative Therapeutics GmbH, priority 2020, published 2023).

Where two headings read alike, the source gives them in different places.

Assay [1] relates to SARS-CoV-2. The format is cell-based. Conditions: Vero-E6 cells; dilutions 1/4000 to 1/500; FIGS. 3A and 3B.
Assay [2] relates to SARS-CoV-2. It counts as cell-based. Conditions: Caco-2 cells; for decrease in viral load versus untreated cells (100%): strongest dilution 1/4000 (25 μg/ml).
For another assay, the system named is HI-viruses. In words: EASY-HIT assay. It counts as cell-based.
Assay [3] deals with SARS-CoV-2. In words: therapeutic effect against SARS-CoV-2 infection in mouse model. The note with it: K18-hACE2 transgenic mice; intra-peritoneal 150 mg/kg 30 minutes before and 500 mg/kg three hours after infection; two days post infection. The format is in vivo. As for the experimental part:
Studies of the Therapeutic Effect in the Mouse Model • To investigate the therapeutic effect of compound (VI-A) against SARS-CoV-2 infection in mouse model, K18-hACE2 transgenic mice were used. The viruses used were a German isolate of SARS-CoV-2. The study was conducted as a feasibility study with two groups (test group, control group) based on six mice each, i.e. a total of 12 animals. The two groups of mice were mildly anesthetized by inhalation of 3% isoflurane and intranasally inoculated with 300 KWSIU (FFU) of SARS-CoV-2. Treatment with the compound (VI-A) was performed by intra-peritoneal injection or application. Treatment of the first group began 30 minutes before infection with a compound concentration or dosage of 150 mg/kg. In addition, three hours after infection, the test mice were administered another 500 mg/kg of the compound (dissolved in 100 μl total volume of simply concentrated PBS buffer with pH 7.4). In the second group (positive control or control group), the mice were infected equally but treated with PBS buffer alone without the addition of diphenyl derivatives or triazenes (sham treatment). Two days post infection, the animals were euthanized. The clinical score (“clinical score”), comprising the recording of weight and clinical signs, of the animals was determined. To determine the success of therapy, the viral load in the lungs was determined by qPCR.

Another assay concerns COVID-19. The note with it: in vivo; cited from earlier work.
In assay [4] the test system is UWB1,289 ovarian cancer cells. In words: whole transcriptome sequencing (RNA-Seq) of treated ovarian cancer cells. The format is cell-based. The note with it: 24 hours; for CDKN1A transcription / DNA repair systems (MMR, BER, NER, ATM/ATR, HR) down-regulated at the transcription level / changes in the transcriptome versus non-treated controls (PCA plot, number of differentially transcribed genes) / expression of CDK family genes / CDK proteins / expression of DNA repair enzymes / transcripts of DNA repair systems: 1,000 μM compound (IV-A3) or 40 μM compound (III-A).

The mark [5] stands for this setting: dilutions 1/4000 to 1/500, FIGS. 2A and 2B.

As for `CN(C)/N=N/c1ccc(C(=O)c2ccc(OCCC(=O)O)cc2)cc1` [compound (VIII-A)], the results for the “decrease in viral load in treated versus untreated cells” value in the assay with SARS-CoV-2 [1], in the assay on SARS-CoV-2 [2] (dilution of 1/500 (1000 μg/ml)) and in the assay with SARS-CoV-2 [2] (setting [5]) were “greatest decrease in viral load”, “best results in terms of viral load decrease” and “Particularly good results”, respectively. Besides, the “inhibitory effect on HI-viruses” value in the assay with HI-viruses is reported as “first inhibitory effect”. The “viral load in the lungs by qPCR versus positive control group” value in the assay on SARS-CoV-2 [3] is “significantly reduced viral load in the lungs”.
For “Tocilizumab: monoclonal antibody approved for the treatment of various forms of rheumatoid arthritis and cytokine release syndrome”, the “efficacy in COVID-19” value in the assay with COVID-19 was “ineffective”.
For the compound `CCN(CCO)CCCC(C)Nc1ccnc2cc(Cl)ccc12` (stereo not drawn) [hydroxychloroquine], the “efficacy in COVID-19” value in the assay with COVID-19 is listed as “no evidence of efficacy”.
Turning to `CN(C)N=Nc1ccc(C(=O)c2ccc(OS(=O)(=O)[O-])cc2)cc1.[Na+]` [compound (IV-A3)], in assay [4], the CDKN1A transcription entry was “strongly induced”; the “DNA repair systems (MMR, BER, NER, ATM/ATR, HR) down-regulated at the transcription level” value was −1.09 log 2FC; the “changes in the transcriptome versus non-treated controls (PCA plot, number of differentially transcribed genes)” value is listed as “more pronounced changes in the transcriptome than compound (III-A)”; the “expression of CDK family genes / CDK proteins” value is “marked down regulation”. In addition, the “expression of DNA repair enzymes / transcripts of DNA repair systems” value in assay [4] is “extensive downregulation”. In assay [4] (1,000 μM compound (IV-A3), genes differentially expressed in both UWB1,289 cell lines), the “induction of CDKN1A” value is recorded as 4.49 log 2FC. For the same compound, in assay [4] (1,000 μM), the “expression of cadherin cell adhesion molecule genes, particularly CDH6” value was “downregulated”. The “expression of DNA dealkylation pathway proteins (APEX1, TET1, ALKBH2)” value in assay [4] (1,000 μM, both cell lines) is “consistently downregulated”.
`CN(C)/N=N/c1ccc(C(=O)c2ccc(O)cc2)cc1` [compound (III-A)]: in assay [4], the CDKN1A transcription result is “consistent upregulation”; the “DNA repair systems (MMR, BER, NER, ATM/ATR, HR) down-regulated at the transcription level” value is −1.09 log 2FC; the “changes in the transcriptome versus non-treated controls (PCA plot, number of differentially transcribed genes)” value is reported as “sufficient change in the transcriptome”; the “expression of CDK family genes / CDK proteins” value is reported as “downregulation”. In addition, in assay [4], the “expression of DNA repair enzymes / transcripts of DNA repair systems” value is reported as “downregulation”.
Regarding `CCN(CC)CCCC(C)Nc1ccnc2cc(Cl)ccc12` (stereo not drawn) [Chloroquine], in the assay on COVID-19, the “efficacy in COVID-19” value is listed as “no evidence of efficacy”.
Consider `CN(C)/N=N/c1ccc(C(=O)c2ccc(O)cc2)cc1` [compound (IV-B)], for which the entries for the “decrease in viral load in treated versus untreated cells” value in the assay on SARS-CoV-2 [1] and in the assay with SARS-CoV-2 [2] (setting [5]) were “significant decrease in viral load” and “Particularly good results”, respectively. For the same compound, the “decrease in viral load versus untreated cells (100%)” value with SARS-CoV-2 [2] (FIG. 2A) worked out at 50%; in the assay with SARS-CoV-2 [2] (FIG. 2B) it was 40%. For the same compound, the “inhibitory effect on HI-viruses” value in the assay with HI-viruses is on record as “first inhibitory effect”. Also, the “viral load in the lungs by qPCR versus positive control group” value in the assay with SARS-CoV-2 [3] was “significantly reduced viral load in the lungs”.
Consider `CN(C)/N=N/c1ccc(C(=O)c2ccc(OS(=O)(=O)O)cc2)cc1` [compound (IV-A)], for which the “inhibitory effect on HI-viruses” value in the assay with HI-viruses was “first inhibitory effect”. Moreover, the “viral load in the lungs by qPCR versus positive control group” value with SARS-CoV-2 [3] is “significantly reduced viral load in the lungs”.
For `CN(C)/N=N/c1ccc(C(=O)c2ccc(OCCC(=O)NCC(=O)O)cc2)cc1` [compound (VI-A)], the “decrease in viral load in treated versus untreated cells” value in the assay with SARS-CoV-2 [1] was “significant decrease in viral load”. In the assay with HI-viruses, the “inhibitory effect on HI-viruses” value is “first inhibitory effect”. Moreover, in the assay with SARS-CoV-2 [3], the “histological examination of the lung tissue versus control group” value was “significantly reduced incidence of infection” and the “viral load in the lungs by qPCR versus positive control group” value is “significantly lower”.
